The results in this text go back to US9572786B2, “Use of capsiate or dihydrocapsidate” (Catholic University Industry Academy Cooperation Foundation, priority 2007, dated 2017).

One assay deals with Sprague dawley (SD) rats. Kind of assay: Retinal vascular permeability in streptozotocin induced diabetic retinopathy. In kind it is in vivo, rat. Conditions: intravitreally injected 1-week after streptozotocin, observed at 3 weeks with dextran FITC. On the procedure: Diabetes are induced by performing intraperitoneal injection of 60 mg/kg of streptozotocin (Sigma, St Louis, Mo., USA) into 8-week-old male Sprague dawley (SD) rats (250 g). 3 days later, serum glucose level was measured and rats having serum glucose level of […] and more are selected and used in experiments. Capsiate or capsaicin was intravitreally injected 1-week after the injection of streptozotocin, respectively. 3 weeks after the injection of streptozotocin, 0.5 ml of dextran FITC (25 mg/ml, MW 40K, Sigma, St Louis, Mo., USA) was injected through tail vein of tested rats to imaging retinal vascular pattern. Retinal tissues of the rats are isolated and observed by fluorescent microscopy (Olympus, Tokyo, Japan). The increase of retinal vascular permeability is observed in nonproliferative diabetic retinopathy, proliferative diabetic retinopathy and diabetic macular edema and result from cracks in vascular vessel due to breakdown of blood-retinal barrier (BRB).

The next assay deals with P38. Kind of assay: MAPK signaling in mouse skin tissue, Western blotting: P38. As to conditions: hairless mouse; UV+CPT vs UV with acetone only. The assay is classed as in vivo. On the procedure:
In order to investigate the intracellular mechanism (signaling) related with the inhibition of COX-2 expression by capsiate, Western blotting was carried out for MAPK signaling-related proteins (ERK, p-ERK, p38, p-p38 and JNK, p-JNK) as in Example 2-2, using proteins isolated from the mouse skin tissue.

Another assay relates to ICAM-1 (CD54). In words: ICAM-1 expression in mouse skin, Western blotting. As to conditions: mouse skin tissue; test group B. The assay is classed as in vivo. On the procedure:
In order to investigate the effect of capsiate on various intracellular angiogenesis-related expression factors, the inhibition effect of capsiate on angiogenesis factors induced by UV was evaluated using the mouse tissue of Example 5.
Western blotting was carried out in the same manner as Example 6 using the proteins isolated from the mouse skin tissue of each test group in Example 6, in order to investigate the level of expression of ICAM-1 (CD54), which is involved in cell infiltration, cell migration, angiogenesis, etc. in inflammatory response. In order to investigate the level of ICAM-1 expression, mouse anti-ICAM-1 antibody (Santa Cruz, USA) and HRP-conjugated secondary antibody (1:10,000, Zymed) were used.
(In general: Immunoblotting shows a protein as a band on a membrane.)

A further assay concerns COX-2. Kind of assay: UV-induced COX-2 expression in mouse skin tissue, immunohistochemical staining. In kind it is in vivo. Conditions: hairless mouse; 200 μL of 1 mM topically; 4 times of UV irradiation. Here is the method: In order to confirm the in vitro experiment result performed on the human keratinocyte HaCaT cells in an animal model, experiment was carried out as follows using hairless mouse (SKH-1). Test groups were as follows: non-treated group—treated with acetone only without UV irradiation; test group A—treated with 200 μL of 1 mM capsiate dissolved in acetone every 24 hours without UV irradiation; control group—treated with UV and acetone; test group B—treated with UV and 200 μL of 1 mM capsiate dissolved in acetone every 24 hours (Unspecified conditions are the same as in Examples 5-7.).
Capsiate was applied on the back of the mouse. 1 hour later, UV was irradiated at an intensity of 2.5 kJ/m^2. 1 hour later, capsiate was applied again at the same concentration in order to prevent rash which may occur immediately after UV irradiation. Thereafter, capsiate was applied every 24 hours and UV irradiation was carried out every other day at an intensity of 2.5 kJ/m^2 for 4 times. In order to investigate the change of tissue and intracellular mechanism (signaling), the mouse was euthanized 1 hour after the final UV irradiation. Skin tissue was taken from the back of the mouse and subjected to skin biopsy following observation.
In order to reconfirm this effect, immunohistochemical staining was carried out as follows. […]

In the next assay the test system is ERK. Kind of assay: MAPK signaling after UV, Western blotting: ERK. The assay is classed as cell-based, human. As to conditions: HaCaT cells; 10, 25, 50 μM; 30 minutes after UV irradiation. Here is the method:
Western blotting was performed in the same manner as in Example 2-1 in order to identify the factor that affects the COX-2 expression regulated by capsiate, except for treating the cells with capsiate at different concentrations (10 μM, 25 μM and 50 μM) prior to UV irradiation, and using rabbit anti-ERK antibody, rabbit anti-p-ERK antibody, rabbit anti-p38 antibody, rabbit anti-p-p38 antibody, rabbit anti-JNK antibody and rabbit anti-p-JNK antibody (cell signaling), and anti-rabbit IgG-HRP conjugation antibody (Zymed) as the secondary antibody, 30 minutes after UV irradiation.

In another assay the test system is IL-8. Kind of assay: UV-induced pro-inflammatory cytokine mRNA, RT-PCR: IL-8. In kind it is cell-based, human. As to conditions: HaCaT cells; 10, 25, 50 μM; UV 100 J/m^2; 4 hours. Here is the method:
(§1) 1×10^6 HaCaT cells were placed on a 100 mm Petri dish and cultured for 24 hours in DMEM containing 10% FBS. Subsequently, the cells were cultured for 24 hours in DMEM containing 1% FBS until starvation. Then, after treating with capsiate at different concentrations (10 μM, 25 μM, 50 μM) for 30 minutes, followed by washing 3 times with PBS, UV was irradiated at an intensity of 100 J/m^2 to induce the production of cytokines. Immediately after the UV irradiation, the cells were washed again with PBS and further cultured for 4 hours in DMEM containing 1% FBS, which was treated with capsiate at the same concentration as in the pre-treatment.
(§2) Then, the degree of mRNA expression for IL-6, IL-8 and TNF-α induced mainly in the skin by the UV irradiation was evaluated by RT-PCR in order to measure the inhibition effect against the pro-inflammatory cytokines.
(§3) RNAs were extracted from the cells of each test group using Trizol (Invitrogen, USA) and used as template for PCR (PTC-225 Peltier thermal cycler, MJ Research, USA) to prepare cDNAs for each test group. Using the resultant cDNAs as template, the degree of mRNA expression for IL-6, IL-8 and TNF-α was measured by RT-PCR (Roter Gene 6000 series, Corbett Research, Australia) using commercial IL-6, IL-8 and TNF-α primers. […]

The subject of another assay is IL-6. In words: UV-induced pro-inflammatory cytokine mRNA, RT-PCR: IL-6. In kind it is cell-based, human. As to conditions: HaCaT cells; 10, 25, 50 μM; UV 100 J/m^2; 4 hours. On the procedure:
as §1, §2, §3

In the case of `COc1cc(COC(=O)CCCC/C=C/C(C)C)ccc1O` [capsiate], the “increment of retinal vascular permeability” value with Sprague dawley (SD) rats was “inhibited”. Moreover, the “P38 (phosphorylation) in mouse skin tissue” value in the assay on P38 was “no significant difference”. In addition, in the assay with ICAM-1 (CD54), the “level of ICAM-1 expression increased by UV irradiation” value is recorded as “decreased”. Further, in the assay on COX-2, the “UV-induced increase of COX-2 in mouse skin tissue (immunohistochemical staining)” value is “effectively inhibited”. Also, in the assay on ERK, the “phosphorylation of ERK” value is given as “inhibited”. The “expression of IL-8 (mRNA) increased by UV irradiation” value in the assay on IL-8 was “significantly decreases”. In addition, the “expression of IL-6 (mRNA) increased by UV irradiation” value with IL-6 is listed as “significantly decreases”.
